Results as given in patent publication US7879837B2, “Therapeutic or prophylactic agent for multiple sclerosis” (Toray Industries, Inc., priority 2006, dated 2011).
Counter-ions that a name gives are not always drawn. Like-named read-outs stand apart in the source and are kept apart here.

Assays:
Jurkat cells = assay: Measurement of Inhibitory Effect on Leukocyte Functions (adhesion of Jurkat cells to ligand-expressing cells or ligand-immobilized plate); assay type: cell-based; details: Homo sapiens, 0.5 h, read-out: IC50 (concentration at which the number of adherent cells is reduced by 50%)
Description: Jurkat cells, which are the cell line originated from human acute T cell […], were allowed to react with BCECF-AM at 37° C. for 20 minutes to fluorescently label the cells. The fluorescently labelled Jurkat cells were allowed to react with ligand-expressing cells or with a ligand-immobilized plate at 37° C. for 30 minutes. After removing non-adherent cells by washing, 1% NP40 was added thereto to lyse the adherent cells, and fluorescence intensity was measured with Cytofluor 2300 (Millipore). From the obtained fluorescence intensity, the number of adherent cells was calculated. Each test compound was reacted with the Jurkat cells before the beginning of the adhesion reaction. In Table 18, the IC50 of each compound (i.e. the concentration at which the number of adherent cells is reduced by 50%) is shown.

[1] = Pharmacokinetic Evaluation in Rats; assay type: in vivo; details: rat, male SD rats, administered orally or intravenously, 0.5 mg/mL dosing solution, plasma up to 8 hours; for clearance: intravenous, read-out: CLtot (total clearance) (converted); for bioavailability: oral, read-out: BA (bioavailability)
Description: Each compound was dissolved in PBS or PBS containing 10% PEG, thereby preparing 0.5 mg/mL dosing solution. The compound was administered orally or intravenously to male SD rats (7 to 9 weeks old). Blood was collected with time from the tail vein at time points up to 8 hours after the administration, and obtained blood was centrifuged to collect blood plasma. The blood plasma was pretreated by using the solid-phase extraction method, and the concentration of the compound was analyzed with LC/MS/MS (ESI negative mode).
As the Comparative Compound, 2-[4-((3,5-dichlorobenzensulfonylamino)methyl)benzoylamino]-5-(4-(methyl-pyrimidin-2-ylamino)phenyl)pent-4-enoic acid (XXI) described in WO 99/26923 was used.

[2] = test system: Mouse Experimental Autoimmune Encephalomyelitis Model; assay: Inhibitory Effect of Compounds Against Mouse Experimental Autoimmune Encephalomyelitis Model; assay type: in vivo; details: orally 50 mg/kg every day from one day before inoculation of PLP139-151; female SJL mouse; scored at Days 11, 12 or 14
Description: This method was carried out in accordance with the literature “Int. Immunol., 9, 1243-1251 (1997)”.
A PBS solution containing 2 mg/mL partial synthetic peptide (PLP139-151) of proteolipid protein was mixed with an equal amount of Freund's complete adjuvant, and the resulting mixture was inoculated intracutaneously into both lateral regions of 7-week-old female SJL mouse (Charles River Laboratories Japan) in a total amount of 0.1 mL (0.05 mL per one side). The compounds described in Example 77, Example 78, Example 80, Example 81, Example 83 and Example 84 were orally administered at a dose of 50 mg/kg every day from one day before the inoculation, and neurological symptoms was scored (0: normal, 1: limp tail or hind limb weakness, 2: limp tail and hind limb weakness, 3: partial hind limb paralysis, 4: complete hind limb paralysis, 5: moribund state) at Days 11, 12 or 14. The scoring was carried out by using the method described in Current Protocols in Immunology (John Wiley & Sons, Inc).

[3] = Jurkat cell adhesion to ligand-expressing cells or ligand-immobilized plate, 37° C., 30 minutes

Row | IC50 (Jurkat cells; [3]) [nM] | clearance [1] [mL/min/kg] | bioavailability [1] [%] | Compound | IC50 (Jurkat cells) [nM] | rate of reduction of increase in the score of neurological symptoms [2] [%]
1 | – | – | – | CCCCN(c1ccc(/C=C/CC(NC(=O)c2c(Cl)cccc2Cl)C(=O)O)cc1)c1ncccn1 (stereo not shown) [Example 37, (E)-5-(4-Butyl-pyrimidin-2-yl-amino)-phenyl]-2-(2,6-dichlorobenzamido)-pent-4-enoic acid sodium salt] | 160 | –
2 | 100 | – | – | CC(C)=CCN(c1ccc(/C=C/CC(NC(=O)c2c(Cl)cccc2Cl)C(=O)O)cc1)c1ncccn1 (stereo not shown) [Example 51, (E)-2-(2,6-Dichlorobenzamido)-5-[4-((3-methyl-2-butenyl)-pyrimidin-2-ylamino)phenyl]pent-4-enoic acid sodium salt] | – | –
3 | – | – | – | O=C(NC(C/C=C/c1ccc(N(CC2CC2)c2ncccn2)cc1)C(=O)O)c1c(Cl)cccc1Cl (stereo not shown) [Example 53, (E)-5-[4-(Cyclopropylmethyl-pyrimidin-2-ylamino)phenyl]-2-(2,6-dichlorobenzamido)pent-4-enoic acid sodium salt] | 120 | –
4 | – | – | – | CC(C)CN(c1ccc(/C=C/CC(NC(=O)c2c(Cl)cccc2Cl)C(=O)O)cc1)c1ncccn1 (stereo not shown) [Example 55, (E)-2-(2,6-Dichlorobenzamido)-5-[4-(isobutyl-pyrimidin-2-ylamino)phenyl]pent-4-enoic acid sodium salt] | 420 | –
5 | 95 | 15.1 | 47.6 | CN(c1ccc(/C=C/C[C@H](NC(=O)c2c(Cl)cccc2Cl)C(=O)O)cc1)c1ncccn1 [Example 80, (S,E)-2-(2,6-Dichlorobenzamido)-5-[4-(methyl-pyrimidin-2-ylamino)phenyl]pent-4-enoic acid] | – | 60
6 | – | 16.1 | 50.9 | CN(c1ccc(/C=C/C[C@H](NC(=O)c2c(Cl)cccc2Cl)C(=O)[O-])cc1)c1ncccn1.[Na+] [Example 81, (S,E)-2-(2,6-Dichlorobenzamido)-5-[4-(methyl-pyrimidin-2-ylamino)phenyl]pent-4-enoic acid sodium salt] | – | 68
7 | 17 | 18.1 | 40 | CC(C)N(c1ccc(/C=C/C[C@H](NC(=O)c2c(Cl)cccc2Cl)C(=O)O)cc1)c1ncccn1 [Example 83, (S,E)-2-(2,6-Dichlorobenzamido)-5-[4-(isopropyl-pyrimidin-2-ylamino)phenyl]pent-4-enoic acid] | – | 70
8 | – | 19.6 | 58.5 | CC(C)N(c1ccc(/C=C/C[C@H](NC(=O)c2c(Cl)cccc2Cl)C(=O)[O-])cc1)c1ncccn1.[Na+] [Example 84, (S,E)-2-(2,6-Dichlorobenzamido)-5-[4-(isopropyl-pyrimidin-2-ylamino)phenyl]pent-4-enoic acid sodium salt] | – | 67

Row | Compound | IC50 (Jurkat cells; [3]) [nM] | clearance [1] [mL/min/kg] | bioavailability [1] [%] | IC50 (Jurkat cells) [nM] | rate of reduction of increase in the score of neurological symptoms [2] [%]
9 | COC1(c2ccc(/C=C/C[C@H](NC(=O)c3c(Cl)cccc3Cl)C(=O)O)cc2)CCOCC1 [Example 77, (S,E)-2-(2,6-Dichlorobenzamido)-5-[4-(4-methoxytetrahydropyran-4-yl)-phenyl]pent-4-enoic acid] | 49 | 16 | 20 | – | 40
10 | COC1(c2ccc(/C=C/C[C@H](NC(=O)c3c(Cl)cccc3Cl)C(=O)[O-])cc2)CCOCC1.[Na+] [Example 78, (S,E)-2-(2,6-Dichlorobenzamido)-5-[4-(4-methoxytetrahydropyran-4-yl)-phenyl]pent-4-enoic acid sodium salt] | – | 16.6 | 26.1 | – | 60
